Paper PMC6384901 (Molecules, 2019)
Numbered stars: 1 amine (or outer) side, 2 acyl side, 3 side chain; on linkers, the order of the positions; unused ones are H or OH. Bridge positions count the residues as written; N and C are the ends. Peptide text beside a SMILES is read from it. * marks the point of attachment. Suberoyl(Gly)2 = O=C(CCCCCCC(=O)NCC(=O)[*:2])NCC(=O)[*:1]; Suberoyl = O=C(CCCCCCC(=O)[*:2])[*:1]; Myristoyl = CCCCCCCCCCCCCC(=O)*; Suc = O=C(CCC(=O)[*:2])[*:1]

Legend:
[1] = target: T1, human recombinant His6-SIRT1 or GST-SIRT1 (Homo sapiens, UniProt Q96EB6); assay: HPLC-based sirtuin deacylation activity assay, SIRT1; assay type: biochemical; conditions: substrate activity with SIRT1; 50 mM Hepes pH 8.0, 0.5 mM β-NAD+, SIRT1 243 nM, 37 °C, 5 min, HPLC 214 nm, Michaelis-Menten fit
T1 construct: His6 or GST (two alternative purchased preparations, not both on one protein); purchased Sigma-Aldrich China (His6-SIRT1); Cayman Chemical (GST-SIRT1)
T1 sequence (Q96EB6 1-747): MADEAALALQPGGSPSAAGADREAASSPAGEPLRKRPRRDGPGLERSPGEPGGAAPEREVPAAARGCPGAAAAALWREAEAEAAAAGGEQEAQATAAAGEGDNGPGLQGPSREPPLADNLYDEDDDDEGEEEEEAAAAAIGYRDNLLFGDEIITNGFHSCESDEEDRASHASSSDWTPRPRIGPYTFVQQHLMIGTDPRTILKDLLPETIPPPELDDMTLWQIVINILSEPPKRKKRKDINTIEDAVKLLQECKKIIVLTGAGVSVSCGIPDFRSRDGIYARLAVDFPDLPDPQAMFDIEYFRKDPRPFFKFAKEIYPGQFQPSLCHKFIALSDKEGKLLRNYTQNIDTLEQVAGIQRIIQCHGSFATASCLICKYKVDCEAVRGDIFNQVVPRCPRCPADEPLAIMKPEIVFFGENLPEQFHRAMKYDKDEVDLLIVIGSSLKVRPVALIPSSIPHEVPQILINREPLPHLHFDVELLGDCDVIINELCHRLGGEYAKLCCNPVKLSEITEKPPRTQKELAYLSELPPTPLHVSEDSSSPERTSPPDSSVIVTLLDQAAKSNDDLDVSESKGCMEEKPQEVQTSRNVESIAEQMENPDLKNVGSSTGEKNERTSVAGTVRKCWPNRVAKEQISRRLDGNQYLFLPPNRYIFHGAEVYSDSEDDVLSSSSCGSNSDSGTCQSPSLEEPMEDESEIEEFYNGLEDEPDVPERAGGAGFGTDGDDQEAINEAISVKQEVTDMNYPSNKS
Experimental: The steady-state kinetic parameters (kcat and KM) for the SIRT1/2/3 substrate activities of the purified 5–8 were determined with a HPLC-based sirtuin deacylation activity assay and are recorded in Table 2 and Table 3. As judged by kcat/KM ratios, cyclic peptides 5–8 were all found to be excellent SIRT1 substrates, actually 5, 7, and 8 are all better SIRT1 substrates than the linear hexapeptide-based SIRT1 substrate 3 (depicted in Figure 2) reported in the current literature (kcat/KM = 800 M^−1 s^−1). Cyclic peptides 5–8 were also all found to be better SIRT3 substrates than the linear hexapeptide-based SIRT3 substrate 3 reported in the current literature (kcat/KM = 990 M^−1·s^−1).
The following materials were obtained from commercial sources for the in vitro sirtuin deacylation activity assay and the pronase digestion assay, and were used as received. Sigma-Aldrich China: the active human recombinant His6-SIRT1, Trizma, Hepes, β-NAD^+, a 1.0 M solution of MgCl2 (molecular-biology grade), the pronase from Streptomyces griseus; Cayman Chemical (Ann Arbor, MI, USA): the active human recombinant GST-SIRT1, the active human recombinant His6-SIRT2, the active human recombinant His6-SIRT3; TCI Shanghai: DL-dithiothreitol (DTT); Alfa Aesar China: NaCl, KCl.
A sirtuin deacylation assay solution contained the following: 50 mM Hepes (pH 8.0), 137 mM NaCl, 2.7 mM KCl, 1 mM MgCl2, 1 mM DTT, β-NAD^+ (~5.6 × KM: 0.5 mM for the SIRT1 and SIRT2 assays, 3.5 mM for the SIRT3 assay), one test compound (5, 6, 7, or 8) with varied concentrations including 0, and a sirtuin (His6-SIRT1 or GST-SIRT1, 243 nM; His6-SIRT2, 297 nM; or His6-SIRT3, 739 nM). An enzymatic reaction was initiated by the addition of a sirtuin at 37 °C and was incubated at 37 °C for 5 min (for the SIRT1 assay) or 2 min (for the SIRT2 and SIRT3 assays) until quenched with the following stop solution: 100 mM HCl and 0.16 M acetic acid. The quenched assay solutions were directly injected into a C18 column (0.46 × 25 cm, 5 μm), and the column was eluted with a gradient of ddH2O containing 0.05% (v/v) TFA and acetonitrile containing 0.05% (v/v) TFA at 1 mL/min and was monitored at 214 nm. Turnover of the limiting substrate was kept at <10%. Stock solutions of the test compounds were all prepared in ddH2O. The integrated product and substrate HPLC peak areas were then used to determine the initial velocities for the sirtuin-catalyzed deacylation reaction at different concentrations of a test compound (5, 6, 7, or 8). The initial velocity-concentration data were analyzed with KaleidaGraph® (Synergy Software, Reading, PA, USA) and the data were fitted to the Michaelis-Menten equation to obtain the kinetic parameters kcat and KM, as recorded in Table 2 and Table 3.

[2] = test system: His6-SIRT2, 297 nM; assay: 50 mM Hepes (pH 8.0), 137 mM NaCl, 2.7 mM KCl, 1 mM MgCl2, 1 mM DTT, β-NAD^+ 0.5 mM; conditions: human, 37 °C, up to 2 min
[3] = test system: His6-SIRT1 or GST-SIRT1, 243 nM; assay: as above; conditions: human, 37 °C, up to 5 min
[4] = test system: His6-SIRT3, 739 nM; assay: 50 mM Hepes (pH 8.0), 137 mM NaCl, 2.7 mM KCl, 1 mM MgCl2, 1 mM DTT, β-NAD^+ 3.5 mM; conditions: human, 37 °C, up to 2 min
[5] = test system: pronase; assay: pronase solution in 100 mM Tris HCl (pH 7.3) (8 ng/µL); conditions: Streptomyces griseus, 37 °C, up to 60 min

fragment found [5] [a] | Compound | KM [1] [µM] | kcat [1] | cleaved bond [2] | cleaved bond [3] | cleaved bond [4]
– | CSCC[C@H](NC(=O)[C@@H]1CCCCNC(=O)CNC(=O)CCCCCCC(=O)NCC(=O)NCCCC[C@H](NC(C)=O)C(=O)N[C@@H](CCCCN)C(=O)N[C@@H](CCCCNC(C)=O)C(=O)N1)C(N)=O [Compound 5] (Ac-KKK(Ac)KM-NH2; linker 1-4 via Suberoyl(Gly)2) | 22.2 ± 1.8 | 35.6 ± 5.1 10^−3, s^−1 | – | – | –
– | CSCC[C@H](NC(=O)[C@@H]1CCCCNC(=O)CCC(=O)NCCCC[C@H](NC(C)=O)C(=O)N[C@@H](CCCCN)C(=O)N[C@@H](CCCCNC(C)=O)C(=O)N1)C(N)=O [Compound 6] (Ac-KKK(Ac)KM-NH2; linker 1-4 via Suc) | 41.3 ± 1.83 | 25.9 ± 2.3 10^−3, s^−1 | – | – | –
– | CCCCCCCCCCCCCC(=O)NCCCC[C@@H]1NC(=O)[C@H](CCCNC(=N)N)NC(=O)[C@@H](NC(C)=O)CCCCNC(=O)CCCCCCC(=O)NCCCC[C@@H](C(=O)N[C@H](C(N)=O)[C@@H](C)O)NC1=O [Compound 7] (Ac-KRK(Myristoyl)KT-NH2; linker 1-4 via Suberoyl) | 2.85 ± 0.13 | 5.8 ± 0.1 10^−3, s^−1 | – | – | –
– | CC(=O)NCCCC[C@@H]1NC(=O)[C@H](CCCCN)NC(=O)[C@@H](NC(C)=O)CCCCNC(=O)CNC(=O)CCCCCCC(=O)NCC(=O)NCCCC[C@@H](C(N)=O)NC1=O [Compound 8] (Ac-KKK(Ac)K-NH2; linker 1-4 via Suberoyl(Gly)2) | 42.2 ± 17.5 | – | – | – | –
– | CH3CONH-Lys-Arg-(N^ε-myristoyl-Lysine)-Lys-Thr-NH2, side chains of Lys1 and Lys4 bridged by suberoyl (read from the drawn structure) | – | – | SIRT2-catalyzed deacylation of N^ε-myristoyl-lysine | SIRT1-catalyzed deacylation of N^ε-myristoyl-lysine | SIRT3-catalyzed deacylation of N^ε-myristoyl-lysine
5 | CH3CONH-Lys-Lys-(N^ε-acetyl-Lysine)-Lys-Met-NH2, side chains of Lys1 and Lys4 bridged by Gly-suberoyl-Gly (read from the drawn structure) | – | – | SIRT2-catalyzed deacylation of N^ε-acetyl-lysine | SIRT1-catalyzed deacylation of N^ε-acetyl-lysine | SIRT3-catalyzed deacylation of N^ε-acetyl-lysine
– | CH3CONH-Lys-Lys-(N^ε-acetyl-Lysine)-Lys-Met-NH2, side chains of Lys1 and Lys4 bridged by succinyl (read from the drawn structure) | – | – | SIRT2-catalyzed deacylation of N^ε-acetyl-lysine | SIRT1-catalyzed deacylation of N^ε-acetyl-lysine | SIRT3-catalyzed deacylation of N^ε-acetyl-lysine
– | CH3CONH-Lys-Lys-(N^ε-acetyl-Lysine)-Lys-NH2, side chains of Lys1 and Lys4 bridged by Gly-suberoyl-Gly (read from the drawn structure) | – | – | SIRT2-catalyzed deacylation of N^ε-acetyl-lysine | SIRT1-catalyzed deacylation of N^ε-acetyl-lysine | SIRT3-catalyzed deacylation of N^ε-acetyl-lysine
